row,Compound,melting point [°C]
1,"Cc1csc2[nH]cc(C#N)c(=O)c12 [Example 3, 3-methyl-4-oxo-4,7-dihydrothieno[2,3-b]pyridine-5-carbonitrile]",285
2,"CC(C)c1c(I)sc2ncc(C#N)c(Cl)c12 [Example 8, 4-chloro-2-iodo-3-isopropylthieno[2,3-b]pyridine-5-carbonitrile]",177 to 179

# More lines, now with the values ahead:
row,melting point [°C],Compound
1,110 to 112,"Cc1cc2c(Cl)c(C#N)cnc2s1 [Example 10, 4-chloro-2-methylthieno[2,3-b]pyridine-5-carbonitrile]"
2,202 to 204,"N#Cc1cnc2sc(-c3ccccc3)cc2c1Cl [Example 16, 4-chloro-2-phenylthieno[2,3-b]pyridine-5-carbonitrile]"
3,> 255,"N#Cc1cnc2sc(Br)cc2c1O [Example 30, 2-bromo-4-hydroxythieno[2,3-b]pyridine-5-carbonitrile]"

# From patent publication US20080076926A1, “Process for the preparation of 4-hydroxythieno[2,3-b]pyridine-5-carbonitriles” (priority 2006, published 2008)
